Reference: patent publication US6593273B2, “Method for reducing pest damage to corn by treating transgenic corn seeds with pesticide” (priority 2000, dated 2003)

System: western and northern corn rootworm
Experiment: Field trial (Example 3): corn rootworm damage by Iowa class, percent of control and synergy threshold
Type: in vivo
Method: The determination of damage by corn rootworm was made according to the following protocol. At stage V4-V6, an evaluation of early stand was made by counting the number of plants per acre. At stage VT-R1, an evaluation of corn rootworm damage was carried out by methods that are well known in the industry, and damage by corn rootworm was reported according to the Iowa 1-6 rating system. In that system, the root systems of 10 corn plants per plot are recovered and scored using the 1-6 rating scale, where: 1=no injury or only a few minor feeding scars, 2=feeding injury evident, but no roots eaten back to 1½ inches of the plant, 3=at least one root eaten off to within 1½ inches of the plant, but never an entire node of roots destroyed, 4=one node of roots eaten back to within 1½ inches of the plant, 5=two nodes (circles) of roots eaten back to within 1½ inches of the plant, 6=three nodes (circles) of roots eaten back to within 1½ inches of the plant.
A field trial was run in accordance with pertinent protocols and in conformance with USDA notification requirements. The purpose of the trial was to determine the efficacy of transgenic event Cry3Bb.11231 in corn seed in combination with corn rootworm seed treatments using imidacloprid.
For each growing site that was selected, the plot design included the following:
The following seed treatment combinations were used for each growing area:
All seed treatments with pesticides were carried out as described in Example 1. In seed treatment number 1 and 2, Gaucho® was used for wire worm protection, but at levels sufficiently low that it would be expected to have no effect on corn rootworms (i.e., at a treatment level of about 60 gm of active/100 kg seed or 0.16 mg active/kernel), otherwise, seed receiving treatment number 2 had only transgenic event Cry3Bb.11231 and no pesticide treatment that would be expected to be effective against corn rootworm.
For seeds having treatments numbered 3 through 5, the pesticides were applied by the methods described in Example 1. For seeds having treatment numbers 6 and 7, commercially available Force® 3G and Lorsban® 15G were applied to the soil in a 5″ band at the time of sowing. The levels of application are as shown and are within the ranges recommended for standard commercial practice.
Corn seeds to be tested were planted and grown at four different locations across several Midwestern states in the United States corn belt according to the protocol described above.
The determination of damage by corn root worm was made according to the protocol described in Example 2.
The combination of imidacloprid seed treatment with corn seed having a Cry3Bb.11231 transgenic event was tested for possible synergy at a level of rootworm damage of 3-6. In the first test, shown in Table 2(A), the percentage of test plants having damage levels of from 3 to 6, on the Iowa 1-6 Scale, was determined for the control and for seeds treated with the pesticide at two levels, and for seeds having the transgenic event, alone and in combination. The following formula was then used to calculate a “synergy threshold”:
(% of control Cry3Bb.11231)*(% of control imidacloprid treatment)/100.
This threshold was compared against the percent of control for the treatment combination (i.e., Cry3Bb.11231 with imidacloprid @ 400 gm/100 kg). If the treatment combination percent of control was below the threshold, then it was concluded that there was synergy.
It was believed that the measurement of rootworm damage at higher damage levels (i.e., levels 3-6) is a useful indicator that correlates with subsequent yield loss due to such damage. The reason for this is that rootworm damage at levels 1 and 2 seldom causes corn plants to fall over and lodge, and such minimal root loss is not believed to reduce the number or weight of kernels per ear. However, root damage at levels of 3 and above increasingly causes lodging and loss of yield. […]

O=[N+]([O-])NC1=NCCN1Cc1ccc(Cl)nc1 [Imidacloprid, 1-[(6-chloro-3-pyridinyl)methol]-N-nitro-2-imidazolidinimime]
PERCENT OF CONTROL (Table 2(A), plants with damage levels 3-6 relative to isohybrid control, imidacloprid @ 400 g/100 kg of seed): 80.5%
NUMBER OF PLANTS HAVING 3-6 DAMAGE LEVEL (Table 2(B), Iowa 1-6 Scale levels 3-6, imidacloprid @ 400 gm/100 kg): 71.7
PERCENT OF CONTROL (Table 2(B), damage levels 3-6 relative to untreated control, imidacloprid @ 400 gm/100 kg): 80.5%
protection against corn rootworm damage (in words) (imidacloprid at 400 gm/100 kg of seed): effective against corn rootworm damage
CORN ROOTWORM DAMAGE IN EACH IOWA CLASS (IOWA 1-6 SCALE): 1 (plants in Iowa class 1, imidacloprid @ 400 g/100 kg of seed, FORCE and LORSBAN as surface band at planting): 3
CORN ROOTWORM DAMAGE IN EACH IOWA CLASS (IOWA 1-6 SCALE): 2 (plants in Iowa class 2, imidacloprid @ 400 g/100 kg of seed, FORCE and LORSBAN as surface band at planting): 15
CORN ROOTWORM DAMAGE IN EACH IOWA CLASS (IOWA 1-6 SCALE): 3 (plants in Iowa class 3, imidacloprid @ 400 g/100 kg of seed, FORCE and LORSBAN as surface band at planting): 36
CORN ROOTWORM DAMAGE IN EACH IOWA CLASS (IOWA 1-6 SCALE): 4 (plants in Iowa class 4, imidacloprid @ 400 g/100 kg of seed, FORCE and LORSBAN as surface band at planting): 21
CORN ROOTWORM DAMAGE IN EACH IOWA CLASS (IOWA 1-6 SCALE): 5 (plants in Iowa class 5, imidacloprid @ 400 g/100 kg of seed, FORCE and LORSBAN as surface band at planting): 5
CORN ROOTWORM DAMAGE IN EACH IOWA CLASS (IOWA 1-6 SCALE): 6 (plants in Iowa class 6, imidacloprid @ 400 g/100 kg of seed, FORCE and LORSBAN as surface band at planting): 0
